Measured values from patent US6525178B2, “PGC-1, a novel brown fat PPARgamma coactivator” (Dana-Farber Cancer Institute, priority 1997, dated 2003).

Legend:
[1] = target: T1, PPARγ (Mus musculus, UniProt P37238); assay: In vitro binding of GST-PGC-1 to in vitro-translated nuclear receptor; details: GST-PGC-1 (aa 36-797) on beads
T1 construct: made in house; host or cells: receptor: reticulocyte lysate in vitro translation (Promega TNT); GST-PGC-1: E. coli
T1 sequence (P37238 1-505): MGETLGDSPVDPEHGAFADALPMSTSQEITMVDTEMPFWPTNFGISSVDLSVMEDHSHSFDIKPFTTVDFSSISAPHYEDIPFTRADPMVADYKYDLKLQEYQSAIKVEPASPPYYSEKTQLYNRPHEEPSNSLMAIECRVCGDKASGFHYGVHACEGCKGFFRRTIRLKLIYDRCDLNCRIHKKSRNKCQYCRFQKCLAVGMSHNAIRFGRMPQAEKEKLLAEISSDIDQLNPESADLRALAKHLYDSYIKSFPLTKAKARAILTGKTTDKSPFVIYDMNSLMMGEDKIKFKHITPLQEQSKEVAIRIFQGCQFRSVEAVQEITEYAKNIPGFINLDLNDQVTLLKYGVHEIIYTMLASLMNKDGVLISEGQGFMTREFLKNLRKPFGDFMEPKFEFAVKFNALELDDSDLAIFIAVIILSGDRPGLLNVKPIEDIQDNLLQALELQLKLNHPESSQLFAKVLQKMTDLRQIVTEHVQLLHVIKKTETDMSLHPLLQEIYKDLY
T1 sequence (O70343 36-797 partner limits assumed): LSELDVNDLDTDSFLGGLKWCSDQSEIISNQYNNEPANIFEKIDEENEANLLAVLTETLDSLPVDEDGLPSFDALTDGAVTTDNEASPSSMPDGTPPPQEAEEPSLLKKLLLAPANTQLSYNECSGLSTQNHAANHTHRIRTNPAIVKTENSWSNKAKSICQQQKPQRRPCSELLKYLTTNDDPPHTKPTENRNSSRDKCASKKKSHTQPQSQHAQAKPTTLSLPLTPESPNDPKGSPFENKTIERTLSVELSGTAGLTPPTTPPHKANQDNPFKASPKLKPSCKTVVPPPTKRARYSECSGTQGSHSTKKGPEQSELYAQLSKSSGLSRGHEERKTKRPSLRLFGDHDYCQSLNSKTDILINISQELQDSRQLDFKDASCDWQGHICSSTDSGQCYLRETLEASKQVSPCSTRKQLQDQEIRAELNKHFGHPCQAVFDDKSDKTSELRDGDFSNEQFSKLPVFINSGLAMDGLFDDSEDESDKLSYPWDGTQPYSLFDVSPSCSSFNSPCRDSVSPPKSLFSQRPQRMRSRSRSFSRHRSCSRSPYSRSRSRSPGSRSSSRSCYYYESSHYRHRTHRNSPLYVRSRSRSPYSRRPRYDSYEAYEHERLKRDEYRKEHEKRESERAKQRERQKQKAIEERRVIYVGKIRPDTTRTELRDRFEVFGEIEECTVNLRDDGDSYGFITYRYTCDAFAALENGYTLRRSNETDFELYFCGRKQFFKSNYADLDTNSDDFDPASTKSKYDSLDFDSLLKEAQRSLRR

[2] = target: T2, retinoid-X receptor (RXRα) (Homo sapiens, UniProt P19793); assay: as above; details: with or without ligand addition
T2 construct: made in house; host or cells: receptor: reticulocyte lysate in vitro translation (Promega TNT); GST-PGC-1: E. coli
T2 sequence (P19793 1-462): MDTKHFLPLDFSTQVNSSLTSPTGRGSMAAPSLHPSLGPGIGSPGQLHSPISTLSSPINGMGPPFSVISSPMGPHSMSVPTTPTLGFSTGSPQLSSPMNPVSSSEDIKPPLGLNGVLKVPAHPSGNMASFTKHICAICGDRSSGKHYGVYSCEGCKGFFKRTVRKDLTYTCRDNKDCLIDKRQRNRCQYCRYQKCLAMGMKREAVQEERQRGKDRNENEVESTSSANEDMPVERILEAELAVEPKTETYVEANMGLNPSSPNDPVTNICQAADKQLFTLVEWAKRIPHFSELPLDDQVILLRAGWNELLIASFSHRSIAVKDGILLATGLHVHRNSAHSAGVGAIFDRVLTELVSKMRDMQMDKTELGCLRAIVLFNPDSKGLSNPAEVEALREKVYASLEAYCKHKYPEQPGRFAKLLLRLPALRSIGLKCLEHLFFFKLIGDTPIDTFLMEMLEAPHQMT
Protocol: The assays were carried out as follows.

[3] = system: 3T3-F442A preadipocytes; assay: Northern analysis of 3T3-F442A cells with retroviral ectopic expression of PGC-1; type: cell-based
Description: To examine directly the ability of PGC-1 to regulate the genes of adaptive thermogenesis, retroviral vectors have been used to express this protein in white fat precursor cells, and 3T3-F442A preadipocytes were then stimulated to differentiate. Briefly, the PGC-1 viral expression vector (pBabe-PGC-1) was constructed by ligating the BamHI-Xhol fragment from pBluescript-PGC-1 plasmid into BamHI/Sall sites of pBabe-puro. Following drug selection, virally infected 3T3F442A-PGC-1 and […] cells lines were grown to confluence in DMEM with 10% BCS. Differentiation of these cells was initiated by culturing them in DMEM insulin. Cells were refed every 2 days with this medium. Specific cells were grown in DMEM with 10% CCS to confluence. […] After these treatments, total RNA was isolated and analyzed.
To induce UCP-1 expression, 1 μM 8-bromo-cAMP and […] 9-cis-retinoic acid were added to the medium, and total RNA was extracted from the cells 6 hr later. […] The mitochondrial respiratory enzyme cytochrome c-oxidase subunits COX II and IV are encoded in the mitochondrial and nuclear genome, respectively. Both of these mRNAs increase 2- to 3-fold in the cells ectopically expressing PGC-1. Expression of aP2, a white and brown fat cell gene not linked to thermogenesis, and 36B4, a ribosomal protein are shown as a loading control.

[4] = system: 3T3-F442A cells; assay: Southern blot analysis of mitochondrial DNA in 3T3-F442A cells expressing PGC-1; type: cell-based; details: cells expressing PGC-1, COX-II cDNA probe
Protocol: Changes in the cellular content of mitochondrial DNA have been used as a simple biochemical assay for mitochondrial proliferation (Martin et al. (1995) Biochem. J. 308:749-752; Klingenspor et al. (1996) Biochem. J. 316:607-613). To address this possibility, Southern blot analysis of mitochondrial DNA was performed. 3T3-F442A Southern blots were carried out by isolating and processing genomic DNA as described in Maniatis et al. (1989) Molecular Cloning: A Laboratory Manual, 2nd Ed. (Cold Spring Harbor, N.Y.: Cold Spring Harbor Laboratory Press)). 3T3-F442A cells were differentiated as described above. Total cellular DNA was isolated and was digested with NCo I. Ten micrograms of DNA were electrophoresed, and the Southern blot was hybridized using COX-II cDNA as a probe for mitrochondrial DNA.
The same blots were also probed with cDNA for 36B4, a ribosomal protein encoded in the nucleus. The blot was then stripped and hybridized with the nuclear gene […].

## PGC-1: mouse PPARγ coactivator 1 protein, SEQ ID NO:2; used as GST fusion or expressed from retroviral vector
[1]
  binding of PGC-1 to PPARγ: interacted with PPARγ
[2]
  binding of PGC-1 to RXRα: little or no binding
[3]; cells expressing PGC-1 vs control
  mRNA for ATP synthetase: increased
[3]; cells expressing PGC-1 vs control 3T3-F442A cells, 8-bromo-cAMP and 9-cis-retinoic acid, 6 hr
  mRNA for UCP-1: significantly induced
[4]
  mitochondrial DNA content compared to control cells: twice
